How the values were obtained:
Format in all cases: in vivo
[1] = system: field corn (Zea mays L., var. Dekalb 535, CORN); experiment: Post-emerge greenhouse test, crop damage rating; settings: 14 days after application, scale 0-100
In short: (§1)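 Scores use a 0 (no damage) to 100 (complete kill) scale, taken 14 days after a foliar spray. Acetone solutions with 0.25% v/v non-ionic surfactant were applied by track sprayer at 187 l/ha and 63-1000 g ai/ha to bottom-watered 2-3 leaf plants.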

[2] = system: upland rice (Oryza sp., var.Tebonnet, RICE); experiment: Post-emerge greenhouse test, crop damage rating; settings: 14 days after application, scale 0-100
In short: as §1

[3] = system: barnyardgrass (Echinochloa crusgalli, ECHCG); experiment: Pre-emerge greenhouse herbicide test, phytotoxicity rating; settings: 14 days after application, rating scale 0-100
In short: (§2)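 Visual 0–100 injury rating (100 = all plants dead) taken 14 days after treatment. Rates of 125–1000 g ai/ha in acetone, 187 l/ha, were sprayed onto soil one day post-sowing; pots were surface-watered to incorporate, then bottom-watered.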

[4] = system: green foxtail (Setaria viridis, SETVI); experiment: as above; settings: 14 days after application, rating scale 0-100
In short: as §2

[5] = system: sicklepod (Cassia obtusifolia, CASOB); experiment: as above; settings: 14 days after application, rating scale 0-100
In short: as §2

[6] = system: lambsquarters (Chenopodium album, CHEAL); experiment: as above; settings: 14 days after application, rating scale 0-100
In short: as §2

[7] = system: velvetleaf (Abutilon theophrasti, ABUTH); experiment: as above; settings: 14 days after application, rating scale 0-100
In short: as §2

[8] = system: large crabgrass (Digitaria sanguinalis, DIGSA); experiment: as above; settings: 14 days after application, rating scale 0-100
In short: as §2

[9] = system: common ragweed (Ambrosia artemisiifolia L., AMBEL); experiment: as above; settings: 14 days after application, rating scale 0-100
In short: as §2

[10] = system: redroot pigweed (Amaranthus retroflexus, AMARE); experiment: as above; settings: 14 days after application, rating scale 0-100
In short: as §2

[11] = system: Johnsongrass (Sorghum halepense, SORHA); experiment: as above; settings: 14 days after application, rating scale 0-100
In short: as §2

[12] = system: ivyleaf morningglory (Ipomoea hederacea, IPOHE); experiment: as above; settings: 14 days after application, rating scale 0-100
In short: as §2

[13] = system: common ragweed (Ambrosia artemisiifolia L., AMBEL); experiment: Post-emerge greenhouse herbicide test, phytotoxicity rating; settings: 14 days after application, scale 0-100
In short: as §1

[14] = system: soybean (Glycine max L., var. Pella 86, SOY); experiment: Pre-emerge greenhouse test, crop damage rating; parameters: key to SOY crop damage rating: 0 = no damage, 100 = complete death of all plants; settings: 14 days after application, rating scale 0-100
In short: as §2

[15] = system: field corn (Zea mays L., var. Dekalb 535, CORN); experiment: Pre-emerge greenhouse test, crop damage rating; settings: 14 days after application, rating scale 0-100
In short: as §2

[16] = system: upland rice (Oryza sp., var.Tebonnet, RICE); experiment: Pre-emerge greenhouse test, crop damage rating; settings: 14 days after application, rating scale 0-100
In short: as §2

[17] = system: barnyardgrass (Echinochloa crusgalli, ECHCG); experiment: Post-emerge greenhouse herbicide test, phytotoxicity rating; settings: 14 days after application, scale 0-100
In short: as §1

[18] = system: green foxtail (Setaria viridis, SETVI); experiment: as above; settings: 14 days after application, scale 0-100
In short: as §1

[19] = system: sicklepod (Cassia obtusifolia, CASOB); experiment: as above; settings: 14 days after application, scale 0-100
In short: as §1

[20] = system: lambsquarters (Chenopodium album, CHEAL); experiment: as above; settings: 14 days after application, scale 0-100
In short: as §1

[21] = system: velvetleaf (Abutilon theophrasti, ABUTH); experiment: as above; settings: 14 days after application, scale 0-100
In short: as §1

[22] = system: large crabgrass (Digitaria sanguinalis, DIGSA); experiment: as above; settings: 14 days after application, scale 0-100
In short: as §1

[23] = system: redroot pigweed (Amaranthus retroflexus, AMARE); experiment: as above; settings: 14 days after application, scale 0-100
In short: as §1

[24] = system: Johnsongrass (Sorghum halepense, SORHA); experiment: as above; settings: 14 days after application, scale 0-100
In short: as §1

[25] = system: ivyleaf morningglory (Ipomoea hederacea, IPOHE); experiment: as above; settings: 14 days after application, scale 0-100
In short: as §1

[26] = system: soybean (Glycine max L., var. Pella 86, SOY); experiment: Post-emerge greenhouse test, crop damage rating; parameters: key to crop damage rating SOY: 0-100 scale: 0 = no damage, 100 = complete death of all plants; settings: 14 days after application, scale 0-100
In short: as §1

SMILES: COc1cc(Oc2cc(-n3c(=O)n4n(c3=S)CCCC4)c(F)cc2Cl)nc(OC)n1 [Compound 8-32]
- crop damage rating CORN ([1]; rate 63 g ai/ha): 5
- crop damage rating CORN ([1]; rate 500 g ai/ha): 5
- crop damage rating RICE ([2]; rate 63 g ai/ha): 0
- crop damage rating RICE ([2]; rate 500 g ai/ha): 10
- ECHCG phytotoxicity rating ([3]; Rate 125 g al/ha): 0
- ECHCG phytotoxicity rating ([3]; Rate 500 g al/ha): 20
- SETVI phytotoxicity rating ([4]; Rate 125 g al/ha): 10
- SETVI phytotoxicity rating ([4]; Rate 500 g al/ha): 100
- CASOB phytotoxicity rating ([5]; Rate 125 g al/ha): 30
- CASOB phytotoxicity rating ([5]; Rate 500 g al/ha): 80
- CHEAL phytotoxicity rating ([6]; Rate 125 g al/ha): 90
- CHEAL phytotoxicity rating ([6]; Rate 500 g al/ha): 100
- ABUTH phytotoxicity rating ([7]; Rate 125 g al/ha): 95
- ABUTH phytotoxicity rating ([7]; Rate 500 g al/ha): 100
- DIGSA phytotoxicity rating ([8]; Rate 125 g al/ha): 20
- DIGSA phytotoxicity rating ([8]; Rate 500 g al/ha): 90
- AMBEL phytotoxicity rating ([9]; Rate 125 g al/ha): 0
- AMBEL phytotoxicity rating ([9]; Rate 500 g al/ha): 50
- AMARE phytotoxicity rating ([10]; Rate 125 g al/ha): 50
- AMARE phytotoxicity rating ([10]; Rate 500 g al/ha): 100
- SORHA phytotoxicity rating ([11]; Rate 125 g al/ha): 10
- SORHA phytotoxicity rating ([11]; Rate 500 g al/ha): 30
- IPOHE phytotoxicity rating ([12]; Rate 125 g al/ha): 40
- IPOHE phytotoxicity rating ([12]; Rate 500 g al/ha): 90
- phytotoxicity rating AMBEL ([13]; rate 63 g ai/ha): 50
- phytotoxicity rating AMBEL ([13]; rate 500 g ai/ha): 90
- SOY crop damage rating ([14]; Rate 125 g al/ha): 0
- SOY crop damage rating ([14]; Rate 500 g al/ha): 0
- CORN crop damage rating ([15]; Rate 125 g al/ha): 0
- CORN crop damage rating ([15]; Rate 500 g al/ha): 10
- RICE crop damage rating ([16]; Rate 125 g al/ha): 0
- RICE crop damage rating ([16]; Rate 500 g al/ha): 40
- phytotoxicity rating ECHCG ([17]; rate 63 g ai/ha): 0
- phytotoxicity rating ECHCG ([17]; rate 500 g ai/ha): 10
- phytotoxicity rating SETVI ([18]; rate 63 g ai/ha): 10
- phytotoxicity rating SETVI ([18]; rate 500 g ai/ha): 40
- phytotoxicity rating CASOB ([19]; rate 63 g ai/ha): 10
- phytotoxicity rating CASOB ([19]; rate 500 g ai/ha): 100
- phytotoxicity rating CHEAL ([20]; rate 63 g ai/ha): 95
- phytotoxicity rating CHEAL ([20]; rate 500 g ai/ha): 100
- phytotoxicity rating ABUTH ([21]; rate 63 g ai/ha): 100
- phytotoxicity rating ABUTH ([21]; rate 500 g ai/ha): 100
- phytotoxicity rating DIGSA ([22]; rate 63 g ai/ha): 0
- phytotoxicity rating DIGSA ([22]; rate 500 g ai/ha): 0
- phytotoxicity rating AMARE ([23]; rate 63 g ai/ha): 90
- phytotoxicity rating AMARE ([23]; rate 500 g ai/ha): 100
- phytotoxicity rating SORHA ([24]; rate 63 g ai/ha): 0
- phytotoxicity rating SORHA ([24]; rate 500 g ai/ha): 20
- phytotoxicity rating IPOHE ([25]; rate 63 g ai/ha): 100
- phytotoxicity rating IPOHE ([25]; rate 500 g ai/ha): 100
- crop damage rating SOY ([26]; rate 63 g ai/ha): 30
- crop damage rating SOY ([26]; rate 500 g ai/ha): 80

From patent US6479435B1, “Diaryl ethers and processes for their preparation and herbicidal and desiccant compositions containing them” (ISK Americas Incorporated, priority 1997, dated 2002)
